Experiment [1] deals with HCV genotype 1a (H77 strain) replicon in HUH-7 cells. The experiment in a line: HCV replicon luciferase reporter assay, genotype 1a. Format: cell-based. The following applies: Hepatitis C virus, Huh-7, 72 h, HCV genotype 1a replicon luciferase, 3 days incubation, class symbols, read-out: LE_1a (EC50, range). An excerpt: (§1) An HCV replicon whole cell system was established as described by Lohmann V, Korner F, Koch J, Herian U, Theilmann L, Bartenschlager R., Science 285(5424):110-3 (1999) and modified to introduce a luciferase reporter, as first described by Krieger et al (Krieger N, Lohmann V, and Bartenschlager R, J. Virol. 75(10):4614-4624 (2001)). CDNA encoding a humanized form of the Renilla luciferase gene and a linker sequence fused directly to the 3′-end of the luciferase gene were introduced into the replicon construct using an Asc1 restriction site located in core, directly upstream of the neomycin marker gene. The adaptive mutation at position 1179 (serine to isoleucine) was also introduced (Blight K J, Kolykhalov, A A, Rice, C M, Science 290(5498):1972-1974). A stable cell line constitutively expressing this HCV replicon construct was generated by first linearizing plasmid DNAs with ScaI. RNA transcripts were synthesized in vitro using the T7 MegaScript transcription kit (Ambion, Austin, Tex.) according to manufacturer's directions. In vitro transcripts of the cDNA were transfected into the human hepatoma cell line, HUH-7. […] Resulting cell lines were characterized for positive and negative strand RNA production and protein production over time.
A stable HCV replicon luciferase reporter cell line representing the genotype 1a H77 strain (Yanagi M, Purcell R H, Emerson S U, et al. Transcripts from a single full-length cDNA clone of hepatitis C virus are infectious when directly transfected into the liver of a chimpanzee. Proc Natl Acad Sci USA 1997; 94(16):8738-8743) was generated as described previously for the genotype 1b (Con1) replicon luciferase cell line. The replicon construct was modified by introducing mutations were introduced into the genes encoding the NS3 helicase domain (proline replaced by leucine at position 1496) and NS5A (serine to isoleucine at position 2204) to improve replication in cell culture.
(§2) HCV replicon luciferase assays were developed to monitor the inhibitory effects of compounds described in the disclosure on HCV genotypes 1a and 1b viral replication. HUH-7 cells, constitutively expressing the HCV replicon, were grown in Dulbecco's Modified Eagle Media (DMEM) (Gibco-BRL) containing 10% Fetal calf serum (FCS) (Sigma) and 1 mg/mL G418 (Gibco-BRL). Compounds were serially diluted 3 folds in DMSO for a twenty-point titration and subsequently transferred to sterile 384-well tissue-culture treated plates (Corning cat #3571). The plates were then seeded with 50 μL of cells at a density of 3.0×10^3 cells/well in DMEM containing 4% FCS (final DMSO concentration at 0.5%). After 3 days incubation at 37° C., cells were analyzed for Renilla Luciferase activity using the EnduRen as substrate (Promega cat #E6485). The EnduRen substrate was diluted in DMEM and then added to the plates to a final concentration of 7.5 μM. The plates were incubated for 2 hrs at 37° C. and then read immediately for 30 seconds with Viewlux Imager (PerkinElmer) using a luminescence program. To assess cytotoxicity of compounds, CC50 values were generated by multiplexing the EnduRen-containing plates with Cell Titer-Blue (Promega, cat # G8082). Cell-Titer Blue (3 μL) was added to each well and incubated for 8 hrs at 37° C. The fluorescence signal from each well was read, with an excitation wavelength at 525/10 nm and an emission wavelength of 598/10 nm, using the Viewlux Imager.
(§3) The EC50 values for compounds were calculated by using a four-parameter logistic equation: y=A+((B−A)/(1+((C/x)^D))), where A and B denotes minimal and maximal % inhibition, respectively, C is the EC50, D is the hill slope and x represents compound concentration.

Experiment [2] concerns HCV genotype 1b (Con1) replicon in HUH-7 cells. The experiment in a line: HCV replicon luciferase reporter assay, genotype 1b. Format: cell-based. The conditions noted are these: Hepatitis C virus, 72 h, HCV genotype 1b replicon luciferase, 3 days incubation, class symbols, read-out: LE_1b (EC50, range).
Source text: as §1, with “time. […]” for “time.”
as §2, §3

The record followed here is US9527885B2, “Hepatitis C virus inhibitors” (BRISTOL-MYERS SQUIBB COMPANY, priority 2011, dated 2016).

Structures are written as SMILES. Some results are limits rather than exact numbers.

On to `CC[C@@H]1C[C@H](C)CC/C=C\[C@@H]2C[C@@]2(C(=O)NS(=O)(=O)C2(C)CC2)NC(=O)[C@@H]2C[C@@H](Oc3ncc(OC)c4ccccc34)CN2C(=O)[C@H]1NC(=O)OC(C)(C)C(F)(F)F` [Compound 4174, 1,1,1-trifluoro-2-methylpropan-2-yl (2R,6S,7R,9R,13aS,14aR,16aS,Z)-7-ethyl-2-(4-methoxyisoquinolin-1-yloxy)-9-methyl-14a-(1-methylcyclopropylsulfonylcarbamoyl)-5,16-dioxo-1,2,3,5,6,7,8,9,10,11,13a,14,14a,15,16,16a-hexadecahydrocyclopropa[e]pyrrolo[1,2-a][1,4]diazacyclopentadecin-6-ylcarbamate], for which the EC50 in experiment [1] and in experiment [2] was less than 5.46 nM throughout.

`CC[C@@H]1C[C@H](C)CC/C=C\[C@@H]2C[C@@]2(C(=O)NS(=O)(=O)C2(C)CC2)NC(=O)[C@@H]2C[C@@H](Oc3nccc4cc(OC)c(F)cc34)CN2C(=O)[C@H]1NC(=O)OC(C)(C)C(F)(F)F` [Compound 4176, 1,1,1-trifluoro-2-methylpropan-2-yl (2R,6S,7R,9R,13aS,14aR,16aS,Z)-7-ethyl-2-(7-fluoro-6-methoxyisoquinolin-1-yloxy)-9-methyl-14a-(1-methylcyclopropylsulfonylcarbamoyl)-5,16-dioxo-1,2,3,5,6,7,8,9,10,11,13a,14,14a,15,16,16a-hexadecahydrocyclopropa[e]pyrrolo[1,2-a][1,4]diazacyclopentadecin-6-ylcarbamate]: the EC50 in experiment [1] and in experiment [2] was less than 5.46 nM throughout.

In the case of `CC[C@@H]1C[C@H](C)CC/C=C\[C@@H]2C[C@@]2(C(=O)NS(=O)(=O)C2(C)CC2)NC(=O)[C@@H]2C[C@@H](Oc3ncc(OC)c4ccc(F)cc34)CN2C(=O)[C@H]1NC(=O)OC(C)(C)C(F)(F)F` [Compound 4186, 1,1,1-trifluoro-2-methylpropan-2-yl (2R,6S,7R,9R,13aS,14aR,16aS,Z)-7-ethyl-2-(7-fluoro-4-methoxyisoquinolin-1-yloxy)-9-methyl-14a-(1-methylcyclopropylsulfonylcarbamoyl)-5,16-dioxo-1,2,3,5,6,7,8,9,10,11,13a,14,14a,15,16,16a-hexadecahydrocyclopropa[e]pyrrolo[1,2-a][1,4]diazacyclopentadecin-6-ylcarbamate], the EC50 in experiment [1] and in experiment [2] was less than 5.46 nM each time.

As to `CC[C@@H]1C[C@H](C)CC/C=C\[C@@H]2C[C@@]2(C(=O)NS(=O)(=O)C2CC2)NC(=O)[C@@H]2C[C@@H](Oc3cnc4ccc(OC)cc4n3)CN2C(=O)[C@H]1NC(=O)OC(C)(C)C(F)(F)F` [Compound 4194, 1,1,1-trifluoro-2-methylpropan-2-yl (2R,6S,7R,9R,13aS,14aR,16aS,Z)-14a-(cyclopropylsulfonylcarbamoyl)-7-ethyl-2-(7-methoxyquinoxalin-2-yloxy)-9-methyl-5,16-dioxo-1,2,3,5,6,7,8,9,10,11,13a,14,14a,15,16,16a-hexadecahydrocyclopropa[e]pyrrolo[1,2-a][1,4]diazacyclopentadecin-6-ylcarbamate], the EC50 in experiment [1] and in experiment [2] was less than 5.46 nM in each case.

For `COc1ccc2c(O[C@@H]3C[C@H]4C(=O)N[C@]5(C(=O)NS(=O)(=O)C6(CF)CC6)C[C@H]5/C=C\CC[C@@H](C)C[C@@H](C)[C@H](NC(=O)OC(C)(C)C(F)(F)F)C(=O)N4C3)ccnc2c1` [Compound 4198, 1,1,1-trifluoro-2-methylpropan-2-yl (2R,6S,7R,9R,13aS,14aR,16aS,Z)-14a-(1-(fluoromethyl)cyclopropylsulfonylcarbamoyl)-2-(7-methoxyquinolin-4-yloxy)-7,9-dimethyl-5,16-dioxo-1,2,3,5,6,7,8,9,10,11,13a,14,14a,15,16,16a-hexadecahydrocyclopropa[e]pyrrolo[1,2-a][1,4]diazacyclopentadecin-6-ylcarbamate], the values for the EC50 in experiment [1] and in experiment [2] were 4.82 to 103 nM and less than 5.46 nM, respectively.

For `COc1ccc2c(O[C@@H]3C[C@H]4C(=O)N[C@]5(C(=O)NS(=O)(=O)C6(CF)CC6)C[C@H]5/C=C\CC[C@@H](C)C[C@@H](C)[C@H](NC(=O)OC(C)(C)C(F)(F)F)C(=O)N4C3)cc(Cl)nc2c1` [Compound 4199, 1,1,1-trifluoro-2-methylpropan-2-yl (2R,6S,7R,9R,13aS,14aR,16aS,Z)-2-(2-chloro-7-methoxyquinolin-4-yloxy)-14a-(1-(fluoromethyl)cyclopropylsulfonylcarbamoyl)-7,9-dimethyl-5,16-dioxo-1,2,3,5,6,7,8,9,10,11,13a,14,14a,15,16,16a-hexadecahydrocyclopropa[e]pyrrolo[1,2-a][1,4]diazacyclopentadecin-6-ylcarbamate], the EC50 in experiment [1] and in experiment [2] was less than 5.46 nM in each case.

Turning to `CCOc1cnc(O[C@@H]2C[C@H]3C(=O)N[C@]4(C(=O)NS(=O)(=O)C5(C)CC5)C[C@H]4/C=C\CC[C@@H](C)C[C@@H](CC)[C@H](NC(=O)OC(C)(C)C(F)(F)F)C(=O)N3C2)c2ccccc12` [Compound 4202, 1,1,1-trifluoro-2-methylpropan-2-yl (2R,6S,7R,9R,13aS,14aR,16aS,Z)-2-(4-ethoxyisoquinolin-1-yloxy)-7-ethyl-9-methyl-14a-(1-methylcyclopropylsulfonylcarbamoyl)-5,16-dioxo-1,2,3,5,6,7,8,9,10,11,13a,14,14a,15,16,16a-hexadecahydrocyclopropa[e]pyrrolo[1,2-a][1,4]diazacyclopentadecin-6-ylcarbamate], the EC50 in experiment [1] and in experiment [2] was less than 5.46 nM each time.

Take `CC[C@@H]1C[C@H](C)CC/C=C\[C@@H]2C[C@@]2(C(=O)NS(=O)(=O)C2(C)CC2)NC(=O)[C@@H]2C[C@@H](Oc3nccc4cc(OC)ccc34)CN2C(=O)[C@H]1NC(=O)OC(C)(C)C` [Compound 4203, tert-butyl (2R,6S,7R,9R,13aS,14aR,16aS,Z)-7-ethyl-2-(6-methoxyisoquinolin-1-yloxy)-9-methyl-14a-(1-methylcyclopropylsulfonylcarbamoyl)-5,16-dioxo-1,2,3,5,6,7,8,9,10,11,13a,14,14a,15,16,16a-hexadecahydrocyclopropa[e]pyrrolo[1,2-a][1,4]diazacyclopentadecin-6-ylcarbamate]: the EC50 in experiment [1] and in experiment [2] was less than 5.46 nM throughout.

`COc1ccc(-c2nc(O[C@@H]3C[C@H]4C(=O)N[C@]5(C(=O)NS(=O)(=O)C6CC6)C[C@@H]5/C=C\CC[C@@H](C)C[C@@H](C)[C@H](NC(=O)OC(C)(C)C)C(=O)N4C3)c3ccc(OC)cc3n2)cc1` [Compound 5002, tert-butyl ((2R,6S,7R,9R,13aR,14aR,16aS,Z)-14a-((cyclopropylsulfonyl)carbamoyl)-2-((7-methoxy-2-(4-methoxyphenyl)quinazolin-4-yl)oxy)-7,9-dimethyl-5,16-dioxo-1,2,3,5,6,7,8,9,10,11,13a,14,14a,15,16,16a-hexadecahydrocyclopropa[e]pyrrolo[1,2-a][1,4]diazacyclopentadecin-6-yl)carbamate]: the EC50 in experiment [1] and in experiment [2] was less than 5.46 nM in each case.
